Laboratory results published in patent US11427549B2, “Pyrimidinyloxy benzo-fused compounds as herbicides” (FMC Corporation, priority 2017, dated 2022).

Assays:
[1] = test system: pigweed (Amaranthus retroflexus); experiment: Test A preemergence, pigweed; format: in vivo; conditions: Amaranthus retroflexus, pre-emergence, 240 h, 0 to 100 scale (0 no effect, 100 complete control), read-out: Plant response rating, Pigweed; for pest or weed control at 31 g/ha: 31 g ai/ha; for pest or weed control at 125 g/ha: 125 g ai/ha
[2] = test system: wheat (Triticum aestivum); experiment: Test A postemergence, wheat; format: in vivo; conditions: Triticum aestivum, post-emergence, 240 h, 0 to 100 scale (0 no effect, 100 complete control), read-out: Plant response rating, Wheat; for plant injury at 31 g/ha: 31 g ai/ha; for plant injury at 125 g/ha: 125 g ai/ha
[3] = test system: foxtail, green (green foxtail, Setaria viridis); experiment: Test A postemergence, foxtail, green; format: in vivo; conditions: Setaria, post-emergence, 240 h, 0 to 100 scale (0 no effect, 100 complete control), read-out: Plant response rating, Foxtail, Green; for pest or weed control at 31 g/ha: 31 g ai/ha; for pest or weed control at 125 g/ha: 125 g ai/ha
[4] = test system: kochia (Kochia scoparia); experiment: Test A postemergence, kochia; format: in vivo; conditions: Bassia scoparia, post-emergence, 240 h, 0 to 100 scale (0 no effect, 100 complete control), read-out: Plant response rating, Kochia; for pest or weed control at 31 g/ha: 31 g ai/ha; for pest or weed control at 125 g/ha: 125 g ai/ha
[5] = test system: blackgrass (Alopecurus myosuroides); experiment: Test A postemergence, blackgrass; format: in vivo; conditions: Alopecurus myosuroides, post-emergence, 240 h, 0 to 100 scale (0 no effect, 100 complete control), read-out: Plant response rating, Blackgrass; for pest or weed control at 31 g/ha: 31 g ai/ha; for pest or weed control at 125 g/ha: 125 g ai/ha
[6] = test system: barnyardgrass (Echinochloa crus-galli); experiment: Test A postemergence, barnyardgrass; format: in vivo; conditions: Echinochloa crus-galli, post-emergence, 240 h, 0 to 100 scale (0 no effect, 100 complete control), read-out: Plant response rating, Barnyardgrass; for pest or weed control at 31 g/ha: 31 g ai/ha; for pest or weed control at 125 g/ha: 125 g ai/ha
[7] = test system: pigweed (Amaranthus retroflexus); experiment: Test A postemergence, pigweed; format: in vivo; conditions: Amaranthus retroflexus, post-emergence, 240 h, 0 to 100 scale (0 no effect, 100 complete control), read-out: Plant response rating, Pigweed; for pest or weed control at 31 g/ha: 31 g ai/ha; for pest or weed control at 125 g/ha: 125 g ai/ha
[8] = test system: ducksalad (Heteranthera limosa); experiment: Test B flooded paddy test, ducksalad; conditions: Heteranthera limosa, read-out: Plant response rating, Ducksalad (0 to 100 scale, 0 is no effect, 100 is complete control)
[9] = test system: corn (Zea mays); experiment: Test A postemergence, corn; format: in vivo; conditions: Zea mays, post-emergence, 240 h, 0 to 100 scale (0 no effect, 100 complete control); for Corn plant response rating (crop injury, 0 = no effect, 100 = complete kill) at 31 g/ha: 31 g ai/ha; for Corn plant response rating (crop injury, 0 = no effect, 100 = complete kill) at 125 g/ha: 125 g ai/ha
[10] = test system: ryegrass, Italian (Italian ryegrass, Lolium multiflorum); experiment: Test A postemergence, ryegrass, Italian; format: in vivo; conditions: Lolium multiflorum, post-emergence, 240 h, 0 to 100 scale (0 no effect, 100 complete control), read-out: Plant response rating, Ryegrass, Italian; for pest or weed control at 31 g/ha: 31 g ai/ha; for pest or weed control at 125 g/ha: 125 g ai/ha
[11] = test system: barnyardgrass (Echinochloa crus-galli); experiment: Test B flooded paddy test, barnyardgrass; conditions: Echinochloa crus-galli, read-out: Plant response rating, Barnyardgrass (0 to 100 scale, 0 is no effect, 100 is complete control)
[12] = test system: ragweed (common ragweed, Ambrosia elatior); experiment: Test A preemergence, ragweed; format: in vivo; conditions: Ambrosia artemisiifolia, pre-emergence, 240 h, 0 to 100 scale (0 no effect, 100 complete control), read-out: Plant response rating, Ragweed; for pest or weed control at 31 g/ha: 31 g ai/ha; for pest or weed control at 125 g/ha: 125 g ai/ha
[13] = test system: barnyardgrass (Echinochloa crus-galli); experiment: Test A preemergence, barnyardgrass; format: in vivo; conditions: Echinochloa crus-galli, pre-emergence, 240 h, 0 to 100 scale (0 no effect, 100 complete control), read-out: Plant response rating, Barnyardgrass; for pest or weed control at 31 g/ha: 31 g ai/ha; for pest or weed control at 125 g/ha: 125 g ai/ha
[14] = test system: rice (Oryza sativa); experiment: Test B flooded paddy test, rice; conditions: Oryza sativa, read-out: Plant response rating, Rice (0 to 100 scale, 0 is no effect, 100 is complete control)
[15] = test system: ryegrass, Italian (Italian ryegrass, Lolium multiflorum); experiment: Test A preemergence, ryegrass, Italian; format: in vivo; conditions: Lolium multiflorum, pre-emergence, 240 h, 0 to 100 scale (0 no effect, 100 complete control), read-out: Plant response rating, Ryegrass, Italian; for pest or weed control at 31 g/ha: 31 g ai/ha; for pest or weed control at 125 g/ha: 125 g ai/ha
[16] = test system: galium (catchweed bedstraw, Galium aparine); experiment: Test A postemergence, galium; format: in vivo; conditions: Galium, post-emergence, 240 h, 0 to 100 scale (0 no effect, 100 complete control), read-out: Plant response rating, Galium; for pest or weed control at 31 g/ha: 31 g ai/ha; for pest or weed control at 125 g/ha: 125 g ai/ha
[17] = test system: ragweed (common ragweed, Ambrosia elatior); experiment: Test A postemergence, ragweed; format: in vivo; conditions: Ambrosia artemisiifolia, post-emergence, 240 h, 0 to 100 scale (0 no effect, 100 complete control), read-out: Plant response rating, Ragweed; for pest or weed control at 31 g/ha: 31 g ai/ha; for pest or weed control at 125 g/ha: 125 g ai/ha
[18] = test system: kochia (Kochia scoparia); experiment: Test A preemergence, kochia; format: in vivo; conditions: Bassia scoparia, pre-emergence, 240 h, 0 to 100 scale (0 no effect, 100 complete control), read-out: Plant response rating, Kochia; for pest or weed control at 31 g/ha: 31 g ai/ha; for pest or weed control at 125 g/ha: 125 g ai/ha

Row | Compound | pest or weed control at 31 g/ha [1] | pest or weed control at 125 g/ha [1] | plant injury at 31 g/ha [2] | plant injury at 125 g/ha [2] | pest or weed control at 31 g/ha [3] | pest or weed control at 125 g/ha [3] | pest or weed control at 31 g/ha [4] | pest or weed control at 125 g/ha [4] | pest or weed control at 31 g/ha [5] | pest or weed control at 125 g/ha [5] | pest or weed control at 31 g/ha [6] | pest or weed control at 125 g/ha [6] | pest or weed control at 31 g/ha [7] | pest or weed control at 125 g/ha [7] | pest or weed control at 250 g/ha [8] | Corn plant response rating (crop injury, 0 = no effect, 100 = complete kill) at 31 g/ha [9] | Corn plant response rating (crop injury, 0 = no effect, 100 = complete kill) at 125 g/ha [9] | pest or weed control at 31 g/ha [10] | pest or weed control at 125 g/ha [10] | pest or weed control at 250 g/ha [11] | further results
1 | CN1C(=O)c2cccc(Oc3ncc(Cl)cn3)c2C1CCCC(F)(F)F (stereo not drawn) [Compound 12, 4-[(5-Chloro-2-pyrimidinyl)oxy]-2,3-dihydro-2-methyl-3-(4,4,4-trifluorobutyl)-1H-isoindol-1-one] | 0% | 0% | 0% | 0% | 0% | 10% | 0% | 10% | 0% | 0% | 0% | 0% | 0% | 30% | 0% | 0% | 10% | 0% | 0% | 0% | pest or weed control at 31 g/ha [12]: 0%; pest or weed control at 125 g/ha [12]: 0%; pest or weed control at 31 g/ha [13]: 0%; pest or weed control at 125 g/ha [13]: 0%; plant injury at 250 g/ha [14]: 0%; pest or weed control at 31 g/ha [15]: 0%; pest or weed control at 125 g/ha [15]: 0%; pest or weed control at 31 g/ha [16]: 0%; pest or weed control at 125 g/ha [16]: 10%; pest or weed control at 31 g/ha [17]: 0%; pest or weed control at 125 g/ha [17]: 20%; pest or weed control at 31 g/ha [18]: 0%; pest or weed control at 125 g/ha [18]: 0%
2 | O=C1NC(CCCC(F)(F)F)c2c(Oc3ncc(Cl)cn3)cccc21 (stereo not drawn) [Compound 13, 4-[(5-Chloro-2-pyrimidinyl)oxy]-2,3-dihydro-3-(4,4,4-trifluorobutyl)-1H-isoindol-1-one] | 0% | 0% | 0% | 0% | 0% | 0% | 0% | 0% | 0% | 0% | 0% | 0% | 0% | 10% | 0% | 0% | 0% | 0% | 0% | 0% | pest or weed control at 31 g/ha [12]: 0%; pest or weed control at 125 g/ha [12]: 0%; pest or weed control at 31 g/ha [13]: 0%; pest or weed control at 125 g/ha [13]: 0%; plant injury at 250 g/ha [14]: 0%; pest or weed control at 31 g/ha [15]: 0%; pest or weed control at 125 g/ha [15]: 0%; pest or weed control at 31 g/ha [16]: 0%; pest or weed control at 125 g/ha [16]: 0%; pest or weed control at 31 g/ha [17]: 0%; pest or weed control at 125 g/ha [17]: 0%; pest or weed control at 31 g/ha [18]: 0%; pest or weed control at 125 g/ha [18]: 0%
